Results on 6 compounds are retold here after patent publication US4097591A, “N^2 -arylsulfonyl-L-argininamides and the pharmaceutically acceptable salts thereof” (Mitsubishi Chemical Industries Limited, priority 1977, dated 1978).

Read-outs that look alike come from different tables or passages of the source.

In the test the target is T1, thrombin (Bos taurus, UniProt P00735).
T1 construct: clotting of bovine fibrinogen
Nature of the test: fibrinogen coagulation time (prolongation by a factor of two). It counts as biochemical. The settings on record: bovine fibrinogen, thrombin 5 units/ml, pH 7.4, 25° C, read-out: Concentration required to prolong the coagulation time by a factor of two. On the procedure:
The measurement of the fibrinogen coagulation time was conducted as follows:
Immediately after mixing, the reaction mixture was transferred from the ice bath to a bath maintained at 25° C. Coagulation times were taken as the period between the time of transference to the 25° C bath and the time of the first appearance of fibrin threads. […] The term "concentration required to prolong the coagulation time by a factor of two" is the concentration of an active ingredient required to prolong the normal coagulation time 50-55 seconds to 100-110 seconds.

Setting [1] is: pH 7.4, first table (Sample Nos. 1-235).
The mark [2] stands for this setting: pH 7.4, TABLE 2 (Sample Nos. 1-14, own numbering).

On to `COc1cc2ccc(S(=O)(=O)N[C@@H](CCCNC(=N)N)C(=O)N(CC(=O)O)Cc3ccccc3)cc2cc1OC` [compound 50], for which the IC (2-fold clotting time) under setting [1] was 2.5 µM.
Still for that read-out and setting: in the case of `Cc1ccc2ccc(S(=O)(=O)N[C@@H](CCCNC(=N)N)C(=O)N3CCC(C(C)C)CC3C(=O)O)cc2c1` (stereo partly drawn) [compound 175] it was 0.1 µM.
On to `CCCCN(CC(=O)O)C(=O)[C@H](CCCNC(=N)N)NS(=O)(=O)c1ccc(OC)c(Cc2ccccc2)c1` [compound 2], for which the IC (2-fold clotting time) under setting [2] was 38 µM.
Still for that read-out and setting: in the case of `CCCCN(CC(=O)O)C(=O)[C@H](CCCNC(=N)N)NS(=O)(=O)c1ccc(OC)c(C2CCCCC2)c1` [compound 3, N^2-(3-cyclohexyl-4-methoxyphenylsulfonyl)-L-arginyl-N-butylglycine] it was 5 µM.
Regarding `COc1ccc2ccc(S(=O)(=O)N[C@@H](CCCNC(=N)N)C(=O)N3CCOCC3C(=O)O)cc2c1` (stereo partly drawn) [compound 189], the IC (2-fold clotting time) under setting [1] is 2 µM.
For the compound `COCCN(CCC(=O)O)C(=O)[C@H](CCCNC(=N)N)NS(=O)(=O)c1ccc2cc(OC)c(OC)cc2c1` [compound 15], the IC (2-fold clotting time) under setting [1] was 2.5 µM.
